Columns and labels:
human EP1 receptor = target: T1, human EP1 receptor (Homo sapiens, UniProt P34995); assay: [3H]PGE2 receptor binding test, human EP1 receptor expressing HEK293 membrane fraction; conditions: [3H]PGE2 1 nM
T1 construct: expressed in transfected cells
T1 sequence (P34995 1-402): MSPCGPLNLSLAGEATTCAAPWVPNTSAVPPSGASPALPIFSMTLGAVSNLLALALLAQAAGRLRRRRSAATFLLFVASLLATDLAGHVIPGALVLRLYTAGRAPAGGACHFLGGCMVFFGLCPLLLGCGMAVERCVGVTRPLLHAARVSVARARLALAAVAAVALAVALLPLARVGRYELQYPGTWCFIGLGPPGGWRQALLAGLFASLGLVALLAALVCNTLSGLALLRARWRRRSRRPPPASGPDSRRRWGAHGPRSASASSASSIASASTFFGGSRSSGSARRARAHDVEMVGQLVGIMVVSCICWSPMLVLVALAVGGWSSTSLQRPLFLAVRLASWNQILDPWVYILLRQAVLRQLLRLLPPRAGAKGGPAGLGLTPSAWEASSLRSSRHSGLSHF
Method: (§1) Receptor Binding Test by Using Human EP Receptor Expressing Cells
(§2) In order to evaluate the selectivity for each EP receptor subtype, which is considered to greatly influence on the side reaction of drugs, [^3H]PGE2 binding inhibitory activities of test compounds were measured in HEK293 in which human EP1, human EP2, human EP3, or human EP4 receptor was stably expressed.
(§3) As a result of searching for prostaglandin E receptors using Refseq Database, the gene information of human EP1 (NM_000955), human EP2 (NM_000956), human EP3 (NM_198719), and human EP4 (NM_000958) was obtained. […] After the reaction, the reaction mixture was subjected to suction filtration under reduced pressure so that [^3H]PGE2 binding to the membrane fraction was trapped on Unifilter Plate GF/C (produced by Packard), and binding radioactivity was measured by using a liquid scintillator.
(§4) The Kd value was obtained by Scatchard plot. […] The [^3H]PGE2 binding inhibitory activity of a test compound was measured by adding [^3H]PGE2 (1 nM) and a test compound at various concentrations. […]
(§5) Further, HEK293 in which each of human EP1, human EP2, and human EP3 receptors was stably expressed was established, and a membrane fraction was prepared. […] The ratios of Ki value for human EP4 to Ki values for human EP1, human EP2, and human EP3 were calculated. […]

human EP2 receptor = target: T2, human EP2 receptor (Homo sapiens, UniProt P43116); assay: [3H]PGE2 receptor binding test, human EP2 receptor expressing HEK293 membrane fraction; conditions: [3H]PGE2 1 nM
T2 construct: expressed in transfected cells
T2 sequence (P43116 whole entry): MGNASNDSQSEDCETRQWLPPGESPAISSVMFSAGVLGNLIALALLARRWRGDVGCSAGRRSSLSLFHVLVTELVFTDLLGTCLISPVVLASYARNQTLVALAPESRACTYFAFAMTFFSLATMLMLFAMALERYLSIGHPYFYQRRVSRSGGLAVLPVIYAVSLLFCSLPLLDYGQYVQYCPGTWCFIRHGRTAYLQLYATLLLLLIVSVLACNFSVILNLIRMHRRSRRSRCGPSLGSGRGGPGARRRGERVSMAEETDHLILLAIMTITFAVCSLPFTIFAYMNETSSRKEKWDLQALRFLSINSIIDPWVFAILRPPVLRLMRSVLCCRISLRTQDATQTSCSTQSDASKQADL
Method: as §1, §2, §3, §4, §5

human EP3 receptor = target: T3, human EP3 receptor (Homo sapiens, UniProt P43115); assay: [3H]PGE2 receptor binding test, human EP3 receptor expressing HEK293 membrane fraction; conditions: [3H]PGE2 1 nM
T3 construct: expressed in transfected cells
T3 sequence (P43115 1-390): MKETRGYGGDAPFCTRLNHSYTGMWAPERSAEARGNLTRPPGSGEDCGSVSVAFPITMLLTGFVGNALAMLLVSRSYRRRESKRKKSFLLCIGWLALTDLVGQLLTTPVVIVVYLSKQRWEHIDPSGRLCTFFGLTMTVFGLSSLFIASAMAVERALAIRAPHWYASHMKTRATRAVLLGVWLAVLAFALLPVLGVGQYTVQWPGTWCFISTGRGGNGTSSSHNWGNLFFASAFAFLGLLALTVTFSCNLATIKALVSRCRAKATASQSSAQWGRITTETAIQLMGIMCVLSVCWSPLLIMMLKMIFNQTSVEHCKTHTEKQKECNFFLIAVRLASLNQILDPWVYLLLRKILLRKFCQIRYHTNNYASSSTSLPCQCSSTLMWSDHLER
Method: as §1, §2, §3, §4, §5

[1] = system: dextran sulfate-induced inflammatory intestinal disease model mice; assay: Action in dextran sulfate-induced inflammatory intestinal disease model mice; assay type: in vivo, mouse; conditions: 7% DSS drinking water 10 days; 0.1-100 mg/kg every day for 10 days
Source text: Action in Dextran Sulfate-Induced Inflammatory Intestinal Disease Model Mice
8-Week old female C57BL/6J mice were allowed to take 7% dextran sulfate (henceforth abbreviated as “DSS”) solution as drinking water ad libitum for 10 days to prepare inflammatory intestinal disease model. From the start of DSS intake, Example Compound Nos. IAH-H001a, IAH-H010 and IAH-H057 each dissolved in a suitable solvent (20 to 50% PEG 400 or 15% cyclodextrin) in the same manner as in Formulation Example 1 were given at appropriate doses (0.1 mg/kg, 1 mg/kg, 10 mg/kg, or 100 mg/kg) every day for 10 days (henceforth referred to as “medicament-treated groups”). Further, the solvent used for dissolving the compounds of the present invention was solely given to the mice made to take DSS (henceforth referred to as “solvent group”), and the solvent used for dissolving the compounds of the present invention was solely given every day to the mice allowed to take distilled water not containing DSS as drinking water ad libitum (henceforth referred to as “normal group”). The number of mice in each group was 10. After the start of intake of drinking water, body weight and clinical score were measured every other day. […] The mice were sacrificed 10 days after the start of intake of DSS containing water, and weights of the intestinal tracts of the large intestines were measured.

crab-eating monkeys = assay: Intraocular pressure lowering action in crab-eating monkeys; assay type: in vivo, crab-eating monkey; conditions: 50 μl instilled, measured over 6 hours, 3 monkeys
Method: Intraocular Pressure Lowering Action
Male crab-eating monkeys with a body weight of 5 to 7.5 kg (5- to 10-year old) were used for the experiment. Example Compound Nos. IAH-H001a, IAH-H010, and IAH-H057 were each dissolved at various concentrations in water or physiological saline containing sodium hydroxide in an amount of the same equivalence as each compound. The intraocular pressure was measured immediately before a treatment with a test compound, then 50 μl of a solution containing each test compound was instilled, and the intraocular pressure was measured over time for 6 hours after the instillation. The intraocular pressure was measured under ketamine (5 to 10 mg/kg, intramuscular injection) anesthetization by using a pneumatic applanation tonometer. Each test compound was used in 3 monkeys, and the intraocular pressures before and after the instillation were compared.

- ratio of Ki values human EP1/human EP4 (human EP1 receptor): ≥ 80000
- ratio of Ki values human EP2/human EP4 (human EP2 receptor): 15000
- ratio of Ki values human EP3/human EP4 (human EP3 receptor): ≥ 45000
SMILES: O=C(O)c1ccc(CCN2C(=O)CCCN2CCC(O)Cc2cccc(C(F)(F)F)c2)cc1 (stereo not drawn) [IAH-H001a, 4-[2-(2-{3-hydroxy-4-[3-(trifluoromethyl)-phenyl]butyl}-6-oxotetrahydropyridazin-1-yl)ethyl]benzoic acid]
- diarrhea score and bloody stool score compared with the solvent group [1]: significantly improved and suppressed
- reduction of the large intestine weight compared with the solvent group [1]: significantly suppressed
- intraocular pressure after instillation compared with before instillation (crab-eating monkeys): significant intraocular pressure lowering action
